DBAASP
≈ marks a conversion by molar mass, not a printed value. Where “and” joins values, the source holds several entries; their conditions need not be identical. Equal values may be shown once.

Columns and labels:
Test in all cases: ≥ marks a high value that may be exact or a test limit, other limits are often not marked, values filed in µg/mL are converted to µM
[1] = tested on: Escherichia coli ATCC 25922
[2] = tested on: Candida albicans ATCC 2002
[3] = tested on: Staphylococcus aureus ATCC 2592
Shigella dysenteriae = tested on: Shigella dysenteriae
[4] = tested on: Bacillus subtilis ATCC 23857
[5] = tested on: Pseudomonas aeruginosa ATCC 9027
[6] = tested on: Klebsiella pneumoniae ATCC 700603
[7] = tested on: Staphylococcus aureus ATCC 25923
[8] = tested on: Staphylococcus epidermidis ATCC 12228
[9] = tested on: Acinetobacter baumannii ATCC 19606
[10] = tested on: Enterococcus faecalis ATCC 29212
[11] = tested on: Pseudomonas aeruginosa ATCC 27853
Escherichia coli B = tested on: Escherichia coli B
Bacillus subtilis 168 = tested on: Bacillus subtilis 168
Staphylococcus aureus = tested on: Staphylococcus aureus
Pseudomonas aeruginosa = tested on: Pseudomonas aeruginosa
[12] = tested on: Pseudomonas aeruginosa PAO1
[13] = tested on: Salmonella enterica subsp. enterica serovar Typhimurium ATCC 14028
[14] = tested on: Klebsiella pneumoniae ATCC 13883

MIC [1]	MIC [4]	MIC [7]	MIC (Escherichia coli B)	MIC (Bacillus subtilis 168)	MIC (Staphylococcus aureus)	MIC (Pseudomonas aeruginosa)	Structure (SMILES)	other results
> 46.7 µM	–	–	–	–	–	–	CC[C@H](C)[C@H](NC(=O)CNC(=O)[C@H](CO)NC(=O)[C@H](CC(C)C)NC(=O)[C@H](CC(C)C)NC(=O)CN)C(=O)N[C@@H](CC(C)C)C(=O)NCC(=O)N[C@@H](C)C(=O)NCC(=O)N[C@@H](CCCCN)C(=O)N[C@@H](Cc1cnc[nH]1)C(=O)N[C@H](C(=O)N[C@H](C(=O)N[C@H]1CSSC[C@@H](C(=O)N[C@@H](C)C(=O)N[C@@H](CCCCN)C(=O)N[C@@H](C)C(=O)O)NC(=O)CNC(=O)[C@H]([C@@H](C)O)NC(=O)[C@H](CC(C)C)NC(=O)CNC1=O)C(C)C)[C@@H](C)CC [GLLSGILGAGKHIVCGLTGCAKA]	MIC [2]: 8.76 µM (≈ 18.7 µg/mL); MIC [3]: 4.38 µM (≈ 9.37 µg/mL); MIC (Shigella dysenteriae): 17.5 µM (≈ 37.5 µg/mL)
64 µM (≈ 77.4 µg/mL)	≥ 128 µM	–	–	–	–	–	CC[C@H](C)[C@H](NC(=O)CNC(=O)[C@H](C)NC(=O)[C@@H](NC(=O)[C@@H](NC(=O)CN)[C@@H](C)CC)[C@@H](C)CC)C(=O)NCC(=O)N[C@H](C(=O)N[C@@H](CCCCN)C(=O)N[C@H](C(=O)N[C@@H](CCCCN)C(=O)N[C@@H](CCCCN)C(N)=O)[C@@H](C)CC)[C@@H](C)CC [GIIAGIGIKIKK]	–
8 µM (≈ 12.2 µg/mL)	8 µM (≈ 12.2 µg/mL)	64 µM (≈ 97.4 µg/mL)	–	–	–	–	CC[C@H](C)[C@H](NC(=O)[C@H](CCCCN)NC(=O)[C@H](CCCCN)NC(=O)[C@H](C)NC(=O)[C@@H](NC(=O)[C@H](C)NC(=O)[C@H](CC(C)C)NC(=O)[C@H](CC(C)C)NC(=O)[C@H](C)NC(=O)[C@H](CCCCN)NC(=O)[C@H](CC(C)C)NC(=O)[C@H](CC(N)=O)NC(=O)[C@@H](N)CCCCN)C(C)C)C(=O)N[C@@H](CC(C)C)C(N)=O [KNLKALLAVAKKIL]	MIC [5]: 8 µM (≈ 12.2 µg/mL); MIC [6]: 16 µM (≈ 24.4 µg/mL)
32 µM (≈ 46.4 µg/mL)	≥ 32 µM	128 µM (≈ 186 µg/mL)	–	–	–	–	CC[C@H](C)[C@H](NC(=O)[C@H](CCCCN)NC(=O)[C@H](CCCCN)NC(=O)[C@H](C)NC(=O)[C@@H](NC(=O)[C@H](C)NC(=O)CNC(=O)[C@H](CC(C)C)NC(=O)[C@H](C)NC(=O)[C@H](CCCCN)NC(=O)[C@H](CC(C)C)NC(=O)[C@H](CC(N)=O)NC(=O)[C@@H](N)CC(C)C)C(C)C)C(=O)N[C@@H](CC(C)C)C(N)=O [LNLKALGAVAKKIL]	MIC [5]: 32 µM (≈ 46.4 µg/mL); MIC [6]: 64 µM (≈ 92.9 µg/mL)
16 µM (≈ 21.8 µg/mL)	16 µM (≈ 21.8 µg/mL)	16 µM (≈ 21.8 µg/mL)	–	–	–	–	C[C@@H](O)[C@H](NC(=O)[C@H](CCCCN)NC(=O)[C@H](Cc1c[nH]c2ccccc12)NC(=O)[C@H](CCCN=C(N)N)NC(=O)[C@H](CCCCN)NC(=O)[C@H](Cc1ccccc1)NC(=O)[C@H](Cc1ccccc1)NC(=O)CN)C(=O)N[C@@H](Cc1ccccc1)C(=O)N[C@@H](Cc1ccccc1)C(N)=O [GFFKRWKTFF]	MIC [6]: 32 µM (≈ 43.6 µg/mL); MIC [8]: 4 µM (≈ 5.45 µg/mL); MIC [9]: 64 µM (≈ 87.2 µg/mL); MIC [10]: 64 µM (≈ 87.2 µg/mL); MIC [11]: 8 µM (≈ 10.9 µg/mL)
–	–	–	≥ 100 µM	≥ 100 µM	–	–	CSCC[C@H](NC(=O)[C@H](Cc1cnc[nH]1)NC(=O)[C@H](C)NC(=O)[C@H](CCSC)NC(=O)[C@@H](NC(=O)[C@H](CCCCN)NC(=O)[C@@H]1CCCN1)C(C)C)C(=O)N[C@@H](CCCCN)C(N)=O [PKVMAHMK]	–
–	–	–	≥ 100 µM	≥ 100 µM	100 µM (≈ 105 µg/mL)	100 µM (≈ 105 µg/mL)	CSCC[C@H](NC(=O)[C@H](Cc1cnc[nH]1)NC(=O)[C@H](C)NC(=O)[C@H](CCSC)NC(=O)[C@@H](NC(=O)[C@H](CCCCN)NC(=O)[C@@H]1CCCN1C(=O)[C@@H](N)CC(C)C)C(C)C)C(=O)N[C@@H](CCCCN)C(N)=O [LPKVMAHMK]	–
–	–	–	3.5 µM (≈ 6.18 µg/mL)	1.2 µM (≈ 2.12 µg/mL)	40 µM (≈ 70.7 µg/mL)	40 µM (≈ 70.7 µg/mL)	CC[C@H](C)[C@H](NC(=O)[C@H](CCCCN)NC(=O)[C@H](CCCCN)NC(=O)[C@H](Cc1c[nH]c2ccccc12)NC(=O)[C@H](CC(N)=O)NC(=O)[C@@H](N)C(C)C)C(=O)N[C@@H](CC(C)C)C(=O)NCC(=O)N[C@@H](CCCCN)C(=O)N[C@H](C(=O)N[C@H](C(=O)N[C@@H](CCCCN)C(=O)N[C@H](C(=O)N[C@H](C(=O)N[C@@H](CCCCN)C(=O)O)C(C)C)C(C)C)[C@@H](C)CC)[C@@H](C)CC [VNWKKILGKIIKVVK]	–
128 µM (≈ 157 µg/mL)	≥ 64 µM	–	–	–	–	–	CC[C@H](C)[C@H](NC(=O)CN)C(=O)N[C@H](C(=O)N[C@@H](C)C(=O)NCC(=O)N[C@H](C(=O)N[C@H](C(=O)N[C@H](C(=O)N[C@@H](CCCCN)C(=O)N[C@@H](C)C(=O)N[C@@H](CCCCN)C(=O)N[C@@H](CCCCN)C(N)=O)[C@@H](C)CC)[C@@H](C)CC)[C@@H](C)CC)[C@@H](C)CC [GIIAGIIIKAKK]	–
–	–	–	≥ 33.3 µM	3 µM (≈ 4.26 µg/mL)	75 µM (≈ 106 µg/mL)	> 100 µM	CC[C@H](C)[C@H](NC(=O)[C@H](CC(C)C)NC(=O)[C@H](Cc1cnc[nH]1)NC(=O)CNC(=O)[C@H](CC(C)C)NC(=O)[C@@H](NC(=O)[C@H](CCCCN)NC(=O)[C@@H]1CCCN1C(=O)[C@H](Cc1c[nH]c2ccccc12)NC(=O)[C@H](CCSC)NC(=O)CN)[C@@H](C)CC)C(=O)N[C@@H](CCCN=C(N)N)C(N)=O [GMWPKILGHLIR]	–
64 µM (≈ 90.2 µg/mL)	8 µM (≈ 11.3 µg/mL)	> 128 µM	–	–	–	–	CC[C@H](C)[C@H](NC(=O)[C@H](CCCCN)NC(=O)[C@H](CCCCN)NC(=O)[C@H](C)NC(=O)[C@@H](NC(=O)[C@H](C)NC(=O)[C@H](C)NC(=O)[C@H](CC(C)C)NC(=O)[C@H](C)NC(=O)[C@H](CCCCN)NC(=O)[C@H](CC(C)C)NC(=O)[C@H](CC(N)=O)NC(=O)CN)C(C)C)C(=O)N[C@@H](CC(C)C)C(N)=O [GNLKALAAVAKKIL]	MIC [5]: 64 µM (≈ 90.2 µg/mL); MIC [6]: 128 µM (≈ 180 µg/mL)
–	–	–	3.5 µM (≈ 5.37 µg/mL)	1.5 µM (≈ 2.3 µg/mL)	38.3 µM (≈ 58.7 µg/mL)	100 µM (≈ 153 µg/mL)	CC[C@H](C)[C@H](NC(=O)[C@H](Cc1cnc[nH]1)NC(=O)[C@H](CCCCN)NC(=O)[C@H](CC(C)C)NC(=O)[C@H](CC(C)C)NC(=O)[C@H](CO)NC(=O)[C@H](CCSC)NC(=O)[C@H](Cc1c[nH]c2ccccc12)NC(=O)[C@H](CCCCN)NC(=O)[C@@H](N)Cc1cnc[nH]1)C(=O)N[C@@H](CC(C)C)C(=O)N[C@@H](CCCCN)C(N)=O [HKWMSLLKHILK]	–
22.2 µM and 30 µM	–	> 30 µM	–	–	–	–	CC(C)C[C@H](NC(=O)[C@H](C)NC(=O)[C@H](CCCN=C(N)N)NC(=O)[C@H](CCCN=C(N)N)NC(=O)[C@H](Cc1ccccc1)NC(=O)[C@H](C)NC(=O)[C@H](Cc1c[nH]c2ccccc12)NC(=O)CNC(=O)[C@H](CCCN=C(N)N)NC(=O)[C@@H](N)CCCN=C(N)N)C(=O)N[C@@H](C)C(=O)N[C@@H](Cc1ccc(O)cc1)C(=O)NCC(=O)N[C@@H](CCCN=C(N)N)C(=O)N[C@@H](CCCN=C(N)N)C(N)=O [RRGWAFRRALAYGRR]	MIC [9]: > 30 µM; MIC [12]: > 30 µM; MIC [13]: 14.8 µM and 30 µM; MIC [14]: 30 µM (≈ 56.7 µg/mL)
–	–	–	0.7 µM (≈ 1.27 µg/mL)	0.7 µM (≈ 1.27 µg/mL)	15.6 µM (≈ 28.2 µg/mL)	26.1 µM (≈ 47.2 µg/mL)	CC[C@H](C)[C@H](NC(=O)[C@H](CCCCN)NC(=O)[C@H](CCCCN)NC(=O)[C@H](Cc1c[nH]c2ccccc12)NC(=O)[C@H](CC(N)=O)NC(=O)[C@@H](N)C(C)C)C(=O)N[C@@H](CC(C)C)C(=O)N[C@@H](CCCCN)C(=O)N[C@@H](CCCCN)C(=O)N[C@H](C(=O)N[C@H](C(=O)N[C@@H](CCCCN)C(=O)N[C@H](C(=O)N[C@@H](C)C(=O)N[C@@H](CCCCN)C(N)=O)C(C)C)[C@@H](C)CC)[C@@H](C)CC [VNWKKILKKIIKVAK]	–
